Key:
Type in all cases: in vivo
Ambrosia elatior = experiment: greenhouse pre-emergence treatment, AMBEL; settings: AMBEL, 20 DAT; for % activity: clomazone solo (CS 360 g/l)
Outline: (§1)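 Damage rated on 0 to 100 scale (0 = normal growth, 100 = no emergence or total above-ground kill) after 2-4 weeks at species-dependent 10-25° C or 20-35° C. Seeds sown per species in loamy sand, ~3.0% humus, treated right after sowing with aqueous spray of single actives or 10% emulsion-concentrate mixtures, then hooded; additive expectation by Colby.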

Digitaria sanguinalis = experiment: greenhouse pre-emergence treatment, DIGSA
Description: (§2) The culture containers used were plastic pots containing loamy sand with approximately 3.0% of humus as substrate. The seeds of the test plants were sown separately for each species.
(§3) For the pre-emergence treatment, the active compounds, suspended or emulsified in water, were applied directly after sowing by means of finely distributing nozzles. The containers were irrigated gently to promote germination and growth and subsequently covered with transparent plastic hoods until the plants had rooted. This cover caused uniform germination of the test plants unless this was adversely affected by the active compounds.
(§4) Depending on the species, the plants were kept at 10-25° C. and 20-35° C., respectively.
(§5) The test period extended over 2 to 4 weeks. During this time, the plants were tended and their response to the individual treatments was evaluated.
(§6) Evaluation was carried out using a scale from 0 to 100. 100 means no emergence of the plants, or complete destruction of at least the above-ground parts, and 0 means no damage or normal course of growth. A good herbicidal activity is given at values of at least 70, and very good herbicidal activity is given at values of at least 85.
(§7) The respective stated components A and B, and if appropriate, C were formulated as a 10% by weight strength emulsion concentrate and, with addition of the amount of solvent system, introduced into the spray liquor used for applying the active compound. In the examples, the solvent used was water.
(§8) In the examples below, using the method of S. R. Colby (1967) “Calculating synergistic and antagonistic responses of herbicide combinations”, Weeds 15, p. 22ff., the value E, which is expected if the activity of the individual active compounds is only additive, was calculated. E=X+Y−(X·Y/100) where X=effect in percent using herbicide A at an application rate a; • Y=effect in percent using herbicide B at application rate b; • E=expected effect (in %) of herbicide A+herbicide B at application rates a+b.

Avena fatua = experiment: greenhouse pre-emergence treatment, AVEFA; settings: Avena fatua, 480 h, read-out: % activity
Outline: as §1

Polygonum convolvulus = experiment: greenhouse pre-emergence treatment, POLCO; settings: Fallopia convolvulus, 480 h, read-out: % activity
Description: as §2, §3, §4, §5, §6, §7, §8

Setaria viridis = experiment: greenhouse pre-emergence treatment, SETVI; settings: SETVI, 20 DAT
Description: as §2, §3, §4, §5, §6, §7, §8

Poa annua = experiment: greenhouse pre-emergence treatment, POAAN; settings: clomazone solo (CS 360 g/l), 20 DAT
Description: as §2, §3, §4, §5, §6, §7, §8

Brachiaria decumbens = experiment: greenhouse pre-emergence treatment, BRADC; settings: BRADC, 20 DAT; for % activity: clomazone solo (CS 360 g/l)
Outline: as §1

Echinocloa crus-galli = experiment: greenhouse pre-emergence treatment, ECHCG; settings: clomazone solo (CS 360 g/l), 120 gai/ha, 20 DAT
Description: as §2, §3, §4, §5, §6, §7, §8

Bromus sterilis = experiment: greenhouse pre-emergence treatment, BROST; settings: Bromus sterilis, 480 h, read-out: % activity
Outline: as §1

Alopecurus myosuroides = experiment: greenhouse pre-emergence treatment, ALOMY; settings: clomazone solo (CS 360 g/l), 30 gai/ha, 20 DAT
Description: as §2, §3, §4, §5, §6, §7, §8

Galium aparine = experiment: greenhouse pre-emergence treatment, GALAP; settings: Galium aparine, 480 h, read-out: % activity
Description: as §2, §3, §4, §5, §6, §7, §8

Helianthus annuus = experiment: greenhouse pre-emergence treatment, HELAN; settings: Helianthus annuus, 480 h, read-out: % activity
Outline: as §1

Lolium multiflorum = experiment: greenhouse pre-emergence treatment, LOLMU; settings: Lolium multiflorum, 480 h, read-out: % activity
Description: as §2, §3, §4, §5, §6, §7, §8

Apera spica-venti = experiment: greenhouse pre-emergence treatment, APESV; settings: clomazone solo (CS 360 g/l), 20 DAT
Description: as §2, §3, §4, §5, §6, §7, §8

## CC1(C)CON(Cc2ccccc2Cl)C1=O [clomazone]
Ambrosia elatior; Ambrosia artemisiifolia, 480 h, solo clomazone (CS 360 g/l) 15 gai/ha
  pest or weed control at 15 g/ha: 0%
Ambrosia elatior; Ambrosia artemisiifolia, 480 h, solo clomazone (CS 360 g/l) 60 gai/ha
  pest or weed control at 60 g/ha: 10%
Ambrosia elatior; Ambrosia artemisiifolia, 480 h, solo clomazone (CS 360 g/l) 120 gai/ha
  pest or weed control at 120 g/ha: 10%
Ambrosia elatior; Ambrosia artemisiifolia, 480 h, solo clomazone (CS 360 g/l) 1250 gai/ha
  pest or weed control at 1250 g/ha: 10%
Ambrosia elatior; 60 gai/ha
  % activity: 10%
Ambrosia elatior; 120 gai/ha
  % activity: 10%
Digitaria sanguinalis; Digitaria sanguinalis, 480 h, DIGSA, 20 DAT, solo clomazone (CS 360 g/l) 60 gai/ha
  pest or weed control at 60 g/ha: 0%
Digitaria sanguinalis; Digitaria sanguinalis, 480 h, DIGSA, 20 DAT, solo clomazone (CS 360 g/l) 120 gai/ha
  pest or weed control at 120 g/ha: 30%
Digitaria sanguinalis; Digitaria sanguinalis, 480 h, read-out: % activity
  pest or weed control at 15 g/ha: 0%
Digitaria sanguinalis; clomazone solo (CS 360 g/l), 120 gai/ha, 20 DAT, DIGSA
  % activity: 30%
Avena fatua
  pest or weed control at 30 g/ha: 0%
Polygonum convolvulus
  pest or weed control at 60 g/ha: 60%
  pest or weed control at 120 g/ha: 75%
Setaria viridis; solo clomazone (CS 360 g/l) 30 gai/ha
  % activity: 0%
Setaria viridis; clomazone solo (CS 360 g/l), 60 gai/ha
  % activity: 30%
Setaria viridis; clomazone solo (CS 360 g/l), 120 gai/ha
  % activity: 65%
Setaria viridis; clomazone solo (CS 360 g/l), 125 gai/ha
  % activity: 65%
Poa annua; 15 gai/ha
  % activity: 0%
Poa annua; 30 gai/ha
  % activity: 0%
Poa annua; 60 gai/ha
  % activity: 30%
Poa annua; 120 gai/ha
  % activity: 80%
Brachiaria decumbens; Urochloa decumbens, 480 h, solo clomazone (CS 360 g/l) 15 gai/ha
  pest or weed control at 15 g/ha: 0%
Brachiaria decumbens; Urochloa decumbens, 480 h, solo clomazone (CS 360 g/l) 30 gai/ha
  pest or weed control at 30 g/ha: 0%
Brachiaria decumbens; Urochloa decumbens, 480 h, solo clomazone (CS 360 g/l) 60 gai/ha
  pest or weed control at 60 g/ha: 0%
Brachiaria decumbens; Urochloa decumbens, 480 h, solo clomazone (CS 360 g/l) 120 gai/ha
  pest or weed control at 120 g/ha: 30%
Brachiaria decumbens; 30 gai/ha
  % activity: 0%
Brachiaria decumbens; 60 gai/ha
  % activity: 0%
Brachiaria decumbens; 120 gai/ha
  % activity: 30%
Echinocloa crus-galli
  % activity: 90%
Bromus sterilis
  pest or weed control at 30 g/ha: 0%
  pest or weed control at 120 g/ha: 30%
Alopecurus myosuroides
  % activity: 0%
Galium aparine
  pest or weed control at 30 g/ha: 80%
Helianthus annuus
  plant injury at 30 g/ha: 10%
Lolium multiflorum
  pest or weed control at 60 g/ha: 40%
  pest or weed control at 120 g/ha: 60%
Apera spica-venti; 15 gai/ha
  % activity: 20%
Apera spica-venti; 120 gai/ha
  % activity: 65%
